According to patent US20200038355A1, “ANTIOXIDANTS FOR USE IN OPHTHALMIC SURGERY” (Case Western Reserve University, priority 2017, published 2020):
“Also recorded” adds a separate entry of the source.

Tests used:
[1] = system: mouse lens ex vivo culture; experiment: Mouse whole lens ex vivo culture, lens capsule immunoblot; type: cell-based; conditions: for αSMA production after BSO stimulation: ex vivo cultured mouse lens (lens capsule), 10 mM NAC or 0.5 mM GSH-EE with 500 μM BSO, 48 hr; for TGFβ2-mediated αSMA production: lens capsule from whole lens culture, 10 mM NAC or 0.5 mM GSH-EE with 1 ng/ml TGFβ2, 48 hr
Procedure: The isolated intact lens was rinsed three times with HBSS and then cultured in 12-well-plates with serum-free Medium 199 (ThermoFisher) with 50 unit/ml penicillin streptomycin at 37° C. in 5% CO2 incubator, as described above. The lens explant was cultured following the same procedure as described by a previous report. […] et al., Exp Eye Res 71, 591-597 (2000). In brief, the mouse lens was placed in an anterior-toposterior orientation with the anterior attached to the culture dish. The lens posterior capsule was torn/cut by the tip of extra-fine forceps and then peeled towards anterior capsule and pinned on the plastic culture dish. The lens fiber mass was removed thereafter. The explant was cultured in serum-free MEM medium supplied with 50 unit/ml penicillin streptomycin at 37° C. in 5% CO2 incubator as described above. Only healthy growing explants were used for the described study and any unhealthy looking explants, such as folded explants or those with cell detachment, were discarded. Cells were placed 24 hr before the treatment and fresh medium was replaced immediately before the treatment. The indicated concentrations of BSO, DMF, NAC, GSH-EE or TGFβ2 were added to fresh medium and incubated at various time intervals as indicated. After treatment time, the cells were harvested after three washes with ice-cold PBS and subjected to immunoblot or other assays as described below. For whole lens culture, the serum-free medium with or without BSO, NAC, GSH-EE or TGFβ2 was incubated immediately after isolation for 48 hr and the whole lens or lens capsule was collected for further analysis. For lens explant culture, 48 hr after explant culture, various stimulates were used in fresh serum-free medium for an additional 48 hr, and the explant was fixed with 10% formaldehyde for 10 min before immunofluorescence stain, as described below. The cells, whole lens, lens capsule, and lens fibers were collected and lysed in lysis buffer containing 20 mM Tris pH 7.5, 1 mM EDTA, 1 mM EGTA, 150 mM NaCl, 1% Triton X-100, 2.5 mM sodium pyrophosphate, 1 mM bα-Glycerolphosphate, 1 mM Na3VO4, 1 mg/ml Leupeptin, 1 mM PMSF on ice for 10 min. The protein concentration from the supernatant was determined by protein BCA assay (ThermoFisher). The protein extract was further processed for immunoblot analysis and probed for αSMA, collagen I, vimentin, phosphorylated Smad2, phosphorylated Smad3, phosphorylated GSK-3β and (β-catenin. All data were normalized to the level of GAPDH.

lens explant = experiment: Mouse lens explant culture (ex vivo PCO mimetic model), αSMA immunofluorescence; type: cell-based; conditions: 10 mM NAC or 0.5 mM GSH-EE co-incubated with 1 ng/ml TGFβ2, 48 hr
Procedure: The isolated intact lens was rinsed three times with HBSS and then cultured in 12-well-plates with serum-free Medium 199 (ThermoFisher) with 50 unit/ml penicillin streptomycin at 37° C. in 5% CO2 incubator, as described above. The lens explant was cultured following the same procedure as described by a previous report. Tamiya et al., Exp Eye Res 71, 591-597 (2000). In brief, the mouse lens was placed in an anterior-toposterior orientation with the anterior attached to the culture dish. The lens posterior capsule was torn/cut by the tip of extra-fine forceps and then peeled towards anterior capsule and pinned on the plastic culture dish. The lens fiber mass was removed thereafter. The explant was cultured in serum-free MEM medium supplied with 50 unit/ml penicillin streptomycin at 37° C. in 5% CO2 incubator as described above. Only healthy growing explants were used for the described study and any unhealthy looking explants, such as folded explants or those with cell detachment, were discarded.
Cells were placed 24 hr before the treatment and fresh medium was replaced immediately before the treatment. The indicated concentrations of BSO, DMF, NAC, GSH-EE or TGFβ2 were added to fresh medium and incubated at various time intervals as indicated. After treatment time, the cells were harvested after three washes with ice-cold PBS and subjected to immunoblot or other assays as described below. For whole lens culture, the serum-free medium with or without BSO, NAC, GSH-EE or TGFβ2 was incubated immediately after isolation for 48 hr and the whole lens or lens capsule was collected for further analysis. […]
Confocal microscope—All confocal images were collected by a Leica SP8 gSTED confocal microscope equipped with two 3 Hyd SP GaAsP detectors and the AOBS system lasers include a 405 nm, Argon (458, 476, 488, 496, 514 nm), a tunable white light (470 to 670 nm), and a 592 nm STED depletion laser. For proper comparison, each channel of fluorescence was adjusted to the highest sensitivity/intensity but without over saturation from samples with the strongest signal. […]

With `CCOC(=O)CNC(=O)[C@H](CS)NC(=O)CC[C@H](N)C(=O)O` [GSH-EE, glutathione ethyl ester] the “αSMA production after BSO stimulation” value [1] was “alleviated; also recorded: partially, but significantly, block”, the “TGFβ2-mediated αSMA production” value [1] was “significantly alleviate” and the “TGFβ2-mediated αSMA production” value ([1]; listed as GSHEE) was “alleviated”. For the same compound, the “TGFβ2-induced αSMA elevation in lens explant” value (lens explant) was “partially, but significantly, attenuated”.
In the case of `CC(=O)N[C@@H](CS)C(=O)O` [NAC, N-acetyl cysteine], the “αSMA production after BSO stimulation” value [1] is reported as “alleviated; also recorded: completely abolish”, the “TGFβ2-mediated αSMA production” value [1] is reported as “alleviated; also recorded: completely block” and the “TGFβ2-induced αSMA elevation in lens explant” value (lens explant) is reported as “attenuated; also recorded: completely alleviated”.
